Among the data in US20260116920A1, “HUMAN TRANSFERRIN RECEPTOR BINDING PEPTIDE” (PEPTIDREAM INC., priority 2021, published 2026) are Kd values, retold here.

Starred links: 1 amine or outer side, 2 acyl side, 3 side chain; linkers in the order of their positions; H or OH if unused. Positions of bridges follow the written chain, without caps; N, C: chain ends. Non-standard residues stand in square brackets, D forms with d. Residues, ends and D or L forms follow the SMILES beside them. Groups on a side chain read outwards from the residue. *: point of attachment. NH(1-deoxy-D-glucityl) = OC[C@@H](O)[C@@H](O)[C@H](O)[C@@H](O)CN*; Trp(1-CH2COOH) = N[C@@H](Cc1cn(CC(=O)O)c2ccccc12)C(=O)O; NMePhe(3-Cl) = CN[C@@H](Cc1cccc(Cl)c1)C(=O)O; Piperazinyl(4-CH2COOH) = O=C(O)CN1CCN(*)CC1; 3Pal(6-NH2) = Nc1ccc(C[C@H](N)C(=O)O)cn1; Lys(N3) = [N-]=[N+]=NCCCC[C@H](N)C(=O)O; NMeY = CN[C@@H](Cc1ccc(O)cc1)C(=O)O; NH(CH2CH2O)4Me = COCCOCCOCCOCCN*; 3Pal = N[C@@H](Cc1cccnc1)C(=O)O; 4Pal = N[C@@H](Cc1ccncc1)C(=O)O; PEG4 = NCCOCCOCCOCCOCCC(=O)O; Carboxymethyl = O=C(O)C*; CO = O=C([*:1])[*:2]

For one experiment, the target named is T1, human transferrin receptor (hTfR) (Homo sapiens, UniProt P02786).
T1 construct: made in house
T1 sequence (P02786 89-760 limits assumed): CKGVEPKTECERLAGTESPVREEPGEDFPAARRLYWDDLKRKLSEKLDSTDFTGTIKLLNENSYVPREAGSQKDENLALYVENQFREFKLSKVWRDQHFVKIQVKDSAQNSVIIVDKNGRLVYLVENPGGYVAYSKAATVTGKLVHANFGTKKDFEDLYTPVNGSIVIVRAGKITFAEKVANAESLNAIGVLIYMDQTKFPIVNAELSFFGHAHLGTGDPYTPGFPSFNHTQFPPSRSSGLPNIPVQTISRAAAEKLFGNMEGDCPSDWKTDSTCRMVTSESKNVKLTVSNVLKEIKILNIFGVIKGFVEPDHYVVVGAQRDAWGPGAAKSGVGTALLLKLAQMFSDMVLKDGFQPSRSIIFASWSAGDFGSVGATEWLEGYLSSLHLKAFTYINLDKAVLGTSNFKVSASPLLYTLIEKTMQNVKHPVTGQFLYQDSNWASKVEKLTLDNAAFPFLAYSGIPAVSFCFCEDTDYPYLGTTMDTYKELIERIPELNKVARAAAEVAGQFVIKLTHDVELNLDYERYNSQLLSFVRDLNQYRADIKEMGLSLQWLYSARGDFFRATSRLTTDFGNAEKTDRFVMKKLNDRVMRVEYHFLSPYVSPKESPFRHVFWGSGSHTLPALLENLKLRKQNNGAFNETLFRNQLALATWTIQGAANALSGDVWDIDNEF
The experiment can be described thus: Evaluation of molecular interaction between transferrin receptor (hTfR) and peptide using surface plasmon resonance (SPR). The format is binding. The settings on record: KD class for binding to hTfR by SPR; peptide with the linker shown in the same line; 'low signal indicates no activity'; read-out: SPR. An outline of the steps:
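Binding kinetics of peptides to immobilized recombinant human TfR dimer were measured by SPR at 5–100 nM in a single-cycle format, with KD obtained from curve fitting.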
A general note: In SPR one partner is held on a chip, and binding of the other changes the refractive index at the surface.
As to `CC[C@H](C)[C@@H]1NC(=O)[C@H](Cc2cccnc2)NC(=O)[C@H](Cc2ccc(O)cc2)NC(=O)[C@H](CC(N)=O)NC(=O)[C@H](Cc2c[nH]c3ccccc23)NC(=O)[C@H](C(C)C)NC(=O)[C@H](Cc2cccc(Cl)c2)N(C)C(=O)[C@H](C(C)C)NC(=O)[C@H](C)NC(=O)CSC[C@@H](C(=O)NCCOCCOCCOCCOCCC(N)=O)NC(=O)[C@H](Cc2ccc(O)cc2)N(C)C(=O)[C@H](Cc2ccncc2)NC(=O)[C@H](CCC(=O)NC[C@H](O)[C@@H](O)[C@H](O)[C@H](O)CO)NC(=O)[C@H](CCC(=O)NC[C@H](O)[C@@H](O)[C@H](O)[C@H](O)CO)NC(=O)[C@H]([C@@H](C)CC)NC1=O` [894_0328] ({CH2CO}-AV[NMePhe(3-Cl)]VWNY[3Pal]IIE(NH(1-deoxy-D-glucityl))E(NH(1-deoxy-D-glucityl))[4Pal][NMeY]C[PEG4]-NH2; thioether N-15), the Kd was 1 to 100 nM.

In the case of `CC[C@H](C)[C@@H]1NC(=O)[C@H](Cc2cccnc2)NC(=O)[C@H](Cc2ccc(O)cc2)NC(=O)[C@H](CC(N)=O)NC(=O)[C@H](Cc2cn(CC(=O)O)c3ccccc23)NC(=O)[C@H](C(C)C)NC(=O)[C@H](Cc2cccc(Cl)c2)N(C)C(=O)[C@H](C(C)C)NC(=O)[C@H](C)NC(=O)CSC[C@@H](C(=O)NCC(=O)N[C@@H](CCCCN=[N+]=[N-])C(N)=O)NC(=O)[C@H](Cc2ccc(O)cc2)N(C)C(=O)[C@H](Cc2ccncc2)NC(=O)[C@H](CCCNC(=N)N)NC(=O)[C@H](CCCNC(=N)N)NC(=O)[C@H]([C@@H](C)CC)NC1=O` [894_3185] ({CH2CO}-AV[NMePhe(3-Cl)]V[Trp(1-CH2COOH)]NY[3Pal]IIRR[4Pal][NMeY]CG[Lys(N3)]-NH2; thioether N-15), the Kd was 1 to 100 nM.

The same experiment, now with this note: peptide with linker, surface plasmon resonance; read-out: SPR (KD class for binding to hTfR).
Regarding `CC[C@H](C)[C@@H]1NC(=O)[C@H](Cc2ccc(OCC(=O)O)cc2)NC(=O)[C@H](Cc2ccc(O)cc2)NC(=O)[C@H](CC(N)=O)NC(=O)[C@H](Cc2cn(CC(=O)O)c3ccccc23)NC(=O)[C@H](C(C)C)NC(=O)[C@H](Cc2cccc(Cl)c2)N(C)C(=O)[C@H](C(C)C)NC(=O)[C@H](C)NC(=O)CSC[C@@H](C(=O)NCCOCCOCCOCCOCCC(N)=O)NC(=O)[C@H](Cc2ccc(O)cc2)N(C)C(=O)[C@H](Cc2ccncc2)NC(=O)[C@H](CCCCN2CCOCC2)NC(=O)[C@H](CCC(=O)NCCOCCOCCOCCOCCOCCOCCOCCOC)NC(=O)[C@H]([C@@H](C)CC)NC1=O` [compound 219], the Kd fell in the range of 1 to 100 nM.

Still in this experiment, the particulars now being: surface plasmon resonance, binding to hTfR; KD class symbol; read-out: SPR (KD value).
For `CC[C@H](C)[C@@H]1NC(=O)[C@H](Cc2ccc(OCC(=O)O)cc2)NC(=O)[C@H](Cc2ccc(O)cc2)NC(=O)[C@H](CC(N)=O)NC(=O)[C@H](Cc2c[nH]c3ccccc23)NC(=O)[C@H](C(C)C)NC(=O)[C@H](Cc2ccccc2)N(C)C(=O)[C@H](C(C)C)NC(=O)[C@H](C)NC(=O)CSC[C@@H](C(=O)NCCOCCOCCOCCOCCC(N)=O)NC(=O)[C@H](Cc2ccc(O)cc2)N(C)C(=O)[C@H](Cc2ccc(O)cc2)NC(=O)[C@H](CCCNC(=N)N)NC(=O)[C@H](CCCNC(=N)N)NC(=O)[C@H]([C@@H](C)CC)NC1=O` [compound 45], the Kd was 1 to 100 nM. `CC[C@H](C)[C@@H]1NC(=O)[C@H](Cc2ccc(OCC(=O)O)cc2)NC(=O)[C@H](Cc2ccc(N)nc2)NC(=O)[C@H](CC(N)=O)NC(=O)[C@H](Cc2c[nH]c3ccccc23)NC(=O)[C@H](C(C)C)NC(=O)[C@H](Cc2cccc(Cl)c2)N(C)C(=O)[C@H](C(C)C)NC(=O)[C@H](C)NC(=O)CSC[C@@H](C(=O)NCCOCCOCCOCCOCCC(N)=O)NC(=O)[C@H](Cc2ccc(O)cc2)N(C)C(=O)[C@H](Cc2ccncc2)NC(=O)[C@H](CCCCNC(=O)N2CCN(CC(=O)O)CC2)NC(=O)[C@H](CCC(=O)NCCOCCOCCOCCOC)NC(=O)[C@H]([C@@H](C)CC)NC1=O` [compound 118] ({CH2CO}-AV[NMePhe(3-Cl)]VWN[3Pal(6-NH2)]Y(Carboxymethyl)IIE(NH(CH2CH2O)4Me)K([CO-Piperazinyl(4-CH2COOH)])[4Pal][NMeY]C[PEG4]-NH2; thioether N-15): the Kd is 1 to 100 nM. Turning to `CC[C@H](C)[C@@H]1NC(=O)[C@H](Cc2ccc(OCC(=O)O)cc2)NC(=O)[C@H](Cc2ccc(O)cc2)NC(=O)[C@H](CC(N)=O)NC(=O)[C@H](Cc2c[nH]c3ncccc23)NC(=O)[C@H](C(C)C)NC(=O)[C@H](Cc2cccc(Cl)c2)N(C)C(=O)[C@H](C(C)C)NC(=O)[C@H](C)NC(=O)CSC[C@@H](C(=O)NCCOCCOCCOCCOCCC(N)=O)NC(=O)[C@H](Cc2ccc(O)cc2)N(C)C(=O)[C@H](Cc2cccc(C(=O)NCCOCCOCCOCCOC)c2)NC(=O)[C@H](CCCNC(=N)N)NC(=O)[C@H](CCC(=O)NCCOCCOCCOCCOC)NC(=O)[C@H]([C@@H](C)CC)NC1=O` [compound 130], the Kd is 1 to 100 nM. Still for that read-out and setting: to `CC[C@H](C)[C@@H]1NC(=O)[C@H](Cc2ccc(OC)cc2)NC(=O)[C@H](Cc2ccc(O)cc2)NC(=O)[C@H](CC(N)=O)NC(=O)[C@H](Cc2c[nH]c3ccccc23)NC(=O)[C@H](C(C)C)NC(=O)[C@H](Cc2cccc(Cl)c2)N(C)C(=O)[C@H](C(C)C)NC(=O)[C@H](C)NC(=O)CSC[C@@H](C(=O)NCCOCCOCCOCCOCCC(N)=O)NC(=O)[C@H](Cc2ccc(O)cc2)N(C)C(=O)[C@H](Cc2ccncc2)NC(=O)[C@H](CCCNC(=N)N)NC(=O)[C@H](CCCNC(=N)N)NC(=O)[C@H]([C@@H](C)CC)NC1=O` [compound 59] belongs less than 1 nM. As to `CC[C@H](C)[C@@H]1NC(=O)[C@H](Cc2ccc(OC)cc2)NC(=O)[C@H](Cc2ccc(O)cc2)NC(=O)[C@H](CC(N)=O)NC(=O)[C@H](Cc2cn(CC(=O)O)c3ccccc23)NC(=O)[C@H](C(C)C)NC(=O)[C@H](Cc2cccc(Cl)c2)N(C)C(=O)[C@H](C(C)C)NC(=O)[C@H](C)NC(=O)CSC[C@@H](C(=O)NCCOCCOCCOCCOCCC(N)=O)NC(=O)[C@H](Cc2ccc(O)cc2)N(C)C(=O)[C@H](Cc2ccccc2)NC(=O)[C@H](CCC(=O)NCCOCCOCCOCCOCCOCCOCCOCCOC)NC(=O)[C@H](CCCNC(=N)N)NC(=O)[C@H]([C@@H](C)CC)NC1=O` [compound 70], the Kd lay in the range of 1 to 100 nM.

For `CC[C@H](C)[C@@H]1NC(=O)[C@H](Cc2ccc(OCC(=O)O)cc2)NC(=O)[C@H](Cc2ccc(O)cc2)NC(=O)[C@H](CC(N)=O)NC(=O)[C@H](Cc2cn(CC(=O)O)c3ccccc23)NC(=O)[C@H](C(C)C)NC(=O)[C@H](Cc2ccccc2)N(C)C(=O)[C@H](C(C)C)NC(=O)[C@H](C)NC(=O)CSC[C@@H](C(=O)NCCOCCOCCOCCOCCC(N)=O)NC(=O)[C@H](Cc2ccc(O)cc2)N(C)C(=O)[C@H](Cc2ccc(O)cc2)NC(=O)[C@H](CCCNC(=N)N)NC(=O)[C@H](CCCNC(=N)N)NC(=O)[C@H]([C@@H](C)CC)NC1=O` [compound 46], the Kd lay within 1 to 100 nM. For the compound `CC[C@H](C)[C@@H]1NC(=O)[C@H](Cc2ccc(OCC(=O)O)cc2)NC(=O)[C@H](Cc2ccc(O)cc2)NC(=O)[C@H](CC(N)=O)NC(=O)[C@H](Cc2cn(CC(=O)O)c3ccccc23)NC(=O)[C@H](C(C)C)NC(=O)[C@H](Cc2cccc(Cl)c2)N(C)C(=O)[C@H](C(C)C)NC(=O)[C@H](C)NC(=O)CSC[C@@H](C(=O)NCCOCCOCCOCCOCCC(N)=O)NC(=O)[C@H](Cc2ccc(O)cc2)N(C)C(=O)[C@H](Cc2ccccc2)NC(=O)[C@H](CCC(=O)NCCOCCOCCOCCOCCOCCOCCOCCOC)NC(=O)[C@H](CCCNC(=N)N)NC(=O)[C@H]([C@@H](C)CC)NC1=O` [compound 102], the Kd fell in the range of 1 to 100 nM.
